Values joined by “and” are separate entries in the source; they are usually repeats but may differ in a detail not shown here. Equal entries are not always repeated. Numbers after ± are expanded uncertainties.
Conditions: Liquid; for mass density: Bellows volumetry

CCC(C)C [2-methylbutane]
mass density (360 K, 70000 kPa): 638.43 ± 0.7 kg/m3
mass density (360 K, 80000 kPa): 645.89 ± 0.71 kg/m3
mass density (360 K, 90000 kPa): 652.93 ± 0.72 kg/m3
mass density (360 K, 100000 kPa): 659.45 ± 0.73 kg/m3
mass density (360 K, 120000 kPa): 671.11 ± 0.74 kg/m3
mass density (360 K, 140000 kPa): 681.34 ± 0.75 kg/m3
mass density (360 K, 160000 kPa): 691.16 ± 0.76 kg/m3
mass density (360 K, 180000 kPa): 699.47 ± 0.77 kg/m3
mass density (360 K, 200000 kPa): 708.18 ± 0.78 kg/m3
vapor or sublimation pressure (360 K): 538 ± 3 kPa
mass density (360 K): 544.8 ± 0.6 kg/m3
mass density (368.12 K, 98070 kPa): 653.72 ± 0.72 kg/m3
mass density (368.12 K, 147100 kPa): 681.34 ± 0.75 kg/m3
mass density (368.12 K, 196130 kPa): 703.04 ± 0.77 kg/m3
mass density (380 K, 846 kPa): 518.39 ± 0.57 kg/m3
mass density (380 K, 857 kPa): 518.44 ± 0.57 kg/m3
mass density (380 K, 962 kPa): 518.87 ± 0.57 kg/m3
mass density (380 K, 1000 kPa): 518.39 ± 0.57 kg/m3
mass density (380 K, 1001 kPa): 519.03 ± 0.57 kg/m3
mass density (380 K, 2000 kPa): 522.38 ± 0.57 kg/m3
mass density (380 K, 3000 kPa): 526.02 ± 0.58 kg/m3
mass density (380 K, 5000 kPa): 532.71 ± 0.59 kg/m3
mass density (380 K, 10000 kPa): 546.59 ± 0.6 kg/m3
mass density (380 K, 20000 kPa): 567.43 ± 0.62 kg/m3
mass density (380 K, 30000 kPa): 583.41 ± 0.64 kg/m3
mass density (380 K, 40000 kPa): 596.53 ± 0.66 kg/m3
mass density (380 K, 50000 kPa): 607.73 ± 0.67 kg/m3
mass density (380 K, 60000 kPa): 617.61 ± 0.68 kg/m3
mass density (380 K, 70000 kPa): 626.4 ± 0.69 kg/m3
mass density (380 K, 80000 kPa): 634.41 ± 0.7 kg/m3
mass density (380 K, 90000 kPa): 641.88 ± 0.71 kg/m3
mass density (380 K, 100000 kPa): 648.74 ± 0.71 kg/m3
mass density (380 K, 120000 kPa): 661.13 ± 0.73 kg/m3
mass density (380 K, 140000 kPa): 672.14 ± 0.74 kg/m3
mass density (380 K, 160000 kPa): 682.07 ± 0.75 kg/m3
mass density (380 K, 180000 kPa): 691.12 ± 0.76 kg/m3
mass density (380 K, 200000 kPa): 699.6 ± 0.77 kg/m3
vapor or sublimation pressure (380 K): 835 ± 3 kPa
mass density (380 K): 518.31 ± 0.57 kg/m3
mass density (400 K, 1250 kPa): 487.6 ± 0.54 kg/m3
mass density (400 K, 1309 kPa): 487.97 ± 0.54 kg/m3
mass density (400 K, 1506 kPa): 489.2 ± 0.54 kg/m3
mass density (400 K, 1611 kPa): 489.83 ± 0.54 kg/m3
mass density (400 K, 2000 kPa): 491.59 ± 0.54 kg/m3 and 492.12 ± 0.54 kg/m3
mass density (400 K, 3000 kPa): 497.03 ± 0.55 kg/m3
mass density (400 K, 5000 kPa): 506.33 ± 0.56 kg/m3
mass density (400 K, 10000 kPa): 524.35 ± 0.58 kg/m3
mass density (400 K, 20000 kPa): 549.47 ± 0.6 kg/m3
mass density (400 K, 30000 kPa): 567.78 ± 0.62 kg/m3
mass density (400 K, 40000 kPa): 582.37 ± 0.64 kg/m3
mass density (400 K, 50000 kPa): 594.58 ± 0.65 kg/m3
mass density (400 K, 60000 kPa): 605.35 ± 0.67 kg/m3
mass density (400 K, 70000 kPa): 614.87 ± 0.68 kg/m3
mass density (400 K, 80000 kPa): 623.43 ± 0.69 kg/m3
mass density (400 K, 90000 kPa): 631.33 ± 0.69 kg/m3
mass density (400 K, 100000 kPa): 638.47 ± 0.7 kg/m3
mass density (400 K, 120000 kPa): 651.4 ± 0.72 kg/m3
mass density (400 K, 140000 kPa): 662.94 ± 0.73 kg/m3
mass density (400 K, 160000 kPa): 673.54 ± 0.74 kg/m3
mass density (400 K, 180000 kPa): 682.87 ± 0.75 kg/m3
mass density (400 K, 200000 kPa): 691.58 ± 0.76 kg/m3
vapor or sublimation pressure (400 K): 1238 ± 3 kPa
mass density (400 K): 487.34 ± 0.54 kg/m3
mass density (410 K, 1519 kPa): 470.27 ± 0.52 kg/m3
mass density (410 K, 1623 kPa): 471.11 ± 0.52 kg/m3
mass density (410 K, 2000 kPa): 474.02 ± 0.52 kg/m3
vapor or sublimation pressure (410 K): 1487 ± 3 kPa
mass density (410 K): 469.93 ± 0.52 kg/m3
mass density (420 K, 1789 kPa): 450.66 ± 0.5 kg/m3
mass density (420 K, 1800 kPa): 450.78 ± 0.5 kg/m3
mass density (420 K, 1904 kPa): 451.92 ± 0.5 kg/m3
mass density (420 K, 2000 kPa): 452.61 ± 0.5 kg/m3 and 452.93 ± 0.5 kg/m3
mass density (420 K, 3000 kPa): 461.88 ± 0.51 kg/m3
mass density (420 K, 5000 kPa): 476.16 ± 0.52 kg/m3
mass density (420 K, 10000 kPa): 500.48 ± 0.55 kg/m3
mass density (420 K, 20000 kPa): 530.77 ± 0.58 kg/m3
mass density (420 K, 30000 kPa): 551.51 ± 0.61 kg/m3
mass density (420 K, 40000 kPa): 567.85 ± 0.62 kg/m3
mass density (420 K, 50000 kPa): 581.15 ± 0.64 kg/m3
mass density (420 K, 60000 kPa): 592.84 ± 0.65 kg/m3
mass density (420 K, 70000 kPa): 602.84 ± 0.66 kg/m3
mass density (420 K, 80000 kPa): 612.1 ± 0.67 kg/m3
mass density (420 K, 90000 kPa): 620.5 ± 0.68 kg/m3
mass density (420 K, 100000 kPa): 628.24 ± 0.69 kg/m3
mass density (420 K, 120000 kPa): 641.97 ± 0.71 kg/m3
mass density (420 K, 140000 kPa): 653.97 ± 0.72 kg/m3
mass density (420 K, 160000 kPa): 664.82 ± 0.73 kg/m3
mass density (420 K, 180000 kPa): 674.63 ± 0.74 kg/m3
mass density (420 K, 200000 kPa): 683.74 ± 0.75 kg/m3
vapor or sublimation pressure (420 K): 1772 ± 3 kPa
mass density (420 K): 450.21 ± 0.5 kg/m3
mass density (440 K, 3000 kPa): 412.99 ± 0.45 kg/m3
mass density (440 K, 5000 kPa): 439.7 ± 0.48 kg/m3
mass density (440 K, 10000 kPa): 474.4 ± 0.52 kg/m3
mass density (440 K, 20000 kPa): 511.64 ± 0.56 kg/m3
mass density (440 K, 30000 kPa): 535.46 ± 0.59 kg/m3
mass density (440 K, 40000 kPa): 553.42 ± 0.61 kg/m3
mass density (440 K, 50000 kPa): 568.08 ± 0.62 kg/m3
mass density (440 K, 60000 kPa): 580.59 ± 0.64 kg/m3
mass density (440 K, 70000 kPa): 591.44 ± 0.65 kg/m3
mass density (440 K, 80000 kPa): 601.22 ± 0.66 kg/m3
mass density (440 K, 90000 kPa): 610.1 ± 0.67 kg/m3
mass density (440 K, 100000 kPa): 618.08 ± 0.68 kg/m3
mass density (440 K, 120000 kPa): 632.51 ± 1.4 kg/m3
mass density (440 K, 140000 kPa): 645.06 ± 1.4 kg/m3
mass density (440 K, 160000 kPa): 656.44 ± 1.4 kg/m3
mass density (440 K, 180000 kPa): 666.6 ± 1.5 kg/m3
mass density (440 K, 200000 kPa): 676.01 ± 1.5 kg/m3
